Data from patent publication US20090124588A1, “Androstane 17-Alpha-Carbonate for Use in the Treatment of Inflammatory and Allergic Conditions” (Glaxo Group Limited, priority 2005, published 2009).

Tests used:
Type in all cases: cell-based
Progesterone Receptor = molecular target: T1, Progesterone Receptor (Homo sapiens, UniProt P06401); test: Progesterone receptor activity (CV-1 cells transduced with PRb-BacMam and MMTV-BacMam); conditions: 24 h, Steady Glo, read-out: pEC50 progesterone receptor (converted)
T1 construct: expressed in transfected cells; host or cells: CV-1 cells transduced with BacMam virus
T1 sequence (P06401 1-933): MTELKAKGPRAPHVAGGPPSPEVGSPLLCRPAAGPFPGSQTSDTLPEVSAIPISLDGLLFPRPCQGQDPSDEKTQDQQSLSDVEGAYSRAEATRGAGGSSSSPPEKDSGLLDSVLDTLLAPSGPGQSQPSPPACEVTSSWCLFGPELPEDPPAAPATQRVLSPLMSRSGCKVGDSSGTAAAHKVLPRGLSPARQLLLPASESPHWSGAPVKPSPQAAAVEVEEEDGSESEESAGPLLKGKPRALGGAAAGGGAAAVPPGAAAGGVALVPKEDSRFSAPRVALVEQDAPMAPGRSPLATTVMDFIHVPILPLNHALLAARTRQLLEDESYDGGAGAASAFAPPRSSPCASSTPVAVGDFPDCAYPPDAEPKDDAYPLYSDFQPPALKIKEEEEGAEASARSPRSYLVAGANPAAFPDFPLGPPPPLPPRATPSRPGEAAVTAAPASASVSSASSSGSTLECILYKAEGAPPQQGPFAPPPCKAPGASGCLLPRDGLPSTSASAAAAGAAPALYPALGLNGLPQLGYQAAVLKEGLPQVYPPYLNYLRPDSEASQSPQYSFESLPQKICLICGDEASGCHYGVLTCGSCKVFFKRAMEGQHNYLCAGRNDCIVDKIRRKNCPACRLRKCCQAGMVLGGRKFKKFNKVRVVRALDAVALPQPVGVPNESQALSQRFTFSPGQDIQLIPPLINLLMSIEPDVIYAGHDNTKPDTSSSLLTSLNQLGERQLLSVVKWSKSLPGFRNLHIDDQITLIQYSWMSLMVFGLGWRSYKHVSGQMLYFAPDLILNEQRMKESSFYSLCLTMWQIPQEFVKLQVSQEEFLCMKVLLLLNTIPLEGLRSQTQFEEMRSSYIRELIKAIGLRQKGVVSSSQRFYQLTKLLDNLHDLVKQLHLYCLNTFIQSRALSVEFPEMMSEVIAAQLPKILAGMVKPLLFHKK
Experimental: A T225 flask of CV-1 cells at a density of 80% confluency was washed with PBS, detached from the flask using 0.25% trypsin and counted using a Sysmex KX-21N. Cells were diluted in DMEM containing 10% Hyclone, 2 mM […] and 1% Pen/Strep at 140 cells/μl and transduced with 10% PRb-BacMam and 10% MMTV-BacMam. […] of suspension cells were dispensed to each well of white Nunc 384-well plates, containing compounds at the required concentration. After 24 h 10 μl of Steady Glo were added to each well of the plates. Plates were incubated in the dark for 10 min before reading them on a Viewlux reader. Dose response curves were constructed from which pEC50 values were estimated.

glucocorticoid receptor [1] = molecular target: T2, glucocorticoid receptor (Homo sapiens, UniProt P04150); test: Transactivation activity of glucocorticoid agonists (MMTV-LTR renilla luciferase reporter in A549 cells); conditions: 6 hour at 37° C., read-out: maximal response relative to Dexamethasone (100%)
T2 sequence (P04150 1-777): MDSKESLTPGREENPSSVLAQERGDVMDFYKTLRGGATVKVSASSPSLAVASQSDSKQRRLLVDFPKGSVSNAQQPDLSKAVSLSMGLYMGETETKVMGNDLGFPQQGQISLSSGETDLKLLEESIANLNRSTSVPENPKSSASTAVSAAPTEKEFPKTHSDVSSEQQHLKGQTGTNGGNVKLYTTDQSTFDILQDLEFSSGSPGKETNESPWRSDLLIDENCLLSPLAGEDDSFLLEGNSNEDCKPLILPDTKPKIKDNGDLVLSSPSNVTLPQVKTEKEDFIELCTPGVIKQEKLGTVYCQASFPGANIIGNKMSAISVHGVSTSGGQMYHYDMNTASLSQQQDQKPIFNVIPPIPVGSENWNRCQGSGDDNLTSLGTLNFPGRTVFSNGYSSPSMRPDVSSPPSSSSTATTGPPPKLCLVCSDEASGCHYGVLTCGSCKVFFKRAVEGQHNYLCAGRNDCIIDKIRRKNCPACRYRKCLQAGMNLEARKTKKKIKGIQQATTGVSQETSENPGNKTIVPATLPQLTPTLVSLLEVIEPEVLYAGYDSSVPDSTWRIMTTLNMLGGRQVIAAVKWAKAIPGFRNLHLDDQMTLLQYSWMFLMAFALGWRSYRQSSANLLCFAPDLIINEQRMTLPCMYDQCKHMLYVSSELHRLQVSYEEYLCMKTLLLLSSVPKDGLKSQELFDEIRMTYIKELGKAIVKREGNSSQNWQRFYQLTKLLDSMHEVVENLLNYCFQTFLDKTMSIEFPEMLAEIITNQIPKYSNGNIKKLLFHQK
Experimental: The functional assay based on that described by R. J. H. Austin et al., Eur Resp J. (2002), 20, 1386-1392 measures the ability of compounds to directly transactivate gene expression. A549 cells stably transfected with a reporter gene containing the glucocorticoid responsive region of the mouse mammary tumour virus long terminal repeat (MMTV-LTR) coupled to renilla luciferase were treated with test compounds at appropriate doses for 6 hour at 37° C. The amount of luciferase activity present within the cells is then determined by measuring the light emitted following incubation with a suitable substrate. Dose response curves were constructed from which EC50 values were estimated and from which maximal responses are calculated relative to Dexamethasone (100%).

glucocorticoid receptor [2] = molecular target: T2, glucocorticoid receptor; test: Transrepression activity of glucocorticoid agonists (NF-κB/ELAM-sPAP reporter in A549 cells, TNF stimulated); conditions: NF-κB responsive ELAM promoter-sPAP reporter, compound 1 hour, TNF 10 ng/ml 16 hours, read-out: pEC50 transrepression (converted)
Experimental: The functional assay based on that described by K. P. Ray et al., Biochem J. (1997), 328, 707-715 provides a measure of transrepressive activity of a glucocorticoid agonist. A549 cells stably transfected with a reporter gene containing the NF-κB responsive elements from the ELAM gene promoter coupled to sPAP (secreted alkaline phosphatase) are treated with test compounds at appropriate doses for 1 hour at 37° C. The cells are then stimulated with tumour necrosis factor (TNF, 10 ng/ml) for 16 hours, at which time the amount of alkaline phosphatase produced is measured by a standard colourimetric assay. Dose response curves were constructed from which EC50 values were estimated.

C[C@@H]1C[C@H]2[C@@H]3C[C@H](F)C4=CC(=O)C=C[C@]4(C)[C@@]3(F)[C@@H](O)C[C@]2(C)[C@@]1(OC(=O)OC(C)(C)C)C(=O)OCC#N [Example 1, Cyanomethyl (6α,11β,16α,17α)-17-({[(1,1-dimethylethyl)oxy]carbonyl}oxy)-6,9-difluoro-11-hydroxy-16-methyl-3-oxoandrosta-1,4-diene-17-carboxylate]
EC50 (Progesterone Receptor): > 100 nM | Emax (glucocorticoid receptor [1]): < 10% | EC50 (glucocorticoid receptor [2]): < 0.1 nM

CCC(C)(C)OC(=O)O[C@]1(C(=O)OCC#N)[C@H](C)C[C@H]2[C@@H]3C[C@H](F)C4=CC(=O)C=C[C@]4(C)[C@@]3(F)[C@@H](O)C[C@@]21C [Example 2, Cyanomethyl (6α,11β,16α,17α)-17-({[(1,1-dimethylpropyl)oxy]carbonyl}oxy)-6,9-difluoro-1-hydroxy-16-methyl-3-oxoandrosta-1,4-diene-17-carboxylate]
EC50 (Progesterone Receptor): > 100 nM | Emax (glucocorticoid receptor [1]): < 10% | EC50 (glucocorticoid receptor [2]): < 0.1 nM
